Reference: US20040214850A1, “1-glyoxylamide indolizines for treating cancer” (Synta Pharmaceuticals Corp., priority 2001, published 2004)
Where two headings read alike, the source gives them in different places.

Columns and labels:
[1] = tested on: DU-145 (human prostate cancer); experiment: In vitro anti-cancer activity, MTS growth inhibition assay, DU-145; assay type: cell-based
Procedure: (§1) The in vitro activity of the compounds was determined in the following seven human cancer cell lines. MDA435 (human breast cancer), MIP101 (human colon cancer), HL-60 (human myeloid leukemia), U937 (human leukemia), p388 (murine leukemia), DU-145 (human prostate cancer), MES-SA (human uterine sarcoma) were obtained from ATCC (American Type of Culture Collection).
(§2) The cell lines were maintained in RPMI1640 (GIBCO) supplemented with 10% FCS, 100 units/ml penicillin, 100 ug/ml streptomycin, and 2 mM L-glutamine. The cells were split every third day and diluted to a concentration of 2×10^5 cells/ml one day before experiment. All experiments were performed on exponentially growing cell culture. Cell densities were 2.5×10^4 cells/ml in all experiment.
(§3) A stock solution of Compound (1) and a stock solution of Taxol (positive control) were prepared by dissolving the compound at a concentration of 1 mM in 100% DMSO. Final concentrations were obtained by diluting the stock solution directly into the tissue culture medium. Cells were incubated with varying concentrations of the compounds for 72 hours and the IC50 was determined by MTS (i.e. 3-(4,5,-dimethylthiazol-2-yl)-2,5-diphenyl tetrazolium bromide) assay. IC50 stands for the concentration of compound required to inhibit 50% tumor cell growth.
(§4) The protocol described in Examples 9-10 was used to assay inhibition by Compounds (20) (21) (24) and (28) on the growth of cancer cell lines MES-SA (human uterine sarcoma cell line) and DU-145 (human prostate cancer).

MES-SA and DU-145 = experiment: in vitro activity over MES-SA and DU-145; assay type: cell-based; settings: Homo sapiens; range over both cell lines; read-out: IC50 against MES-SA and DU-145
Procedure: as §2, §3, §4

[2] = tested on: MES-SA (human uterine sarcoma); experiment: In vitro anti-cancer activity, MTS growth inhibition assay, MES-SA; assay type: cell-based
Procedure: as §1, §2, §3, §4

[3] = tested on: MES-SA/DX5 (multi-drug resistant human uterine sarcoma cell line); experiment: In vitro activity against multi-drug resistant cell line MES-SA/DX5; assay type: cell-based
Procedure: as §2, §3
(§5) In vitro activity was determined in two MDR (Multi Drug Resistant) human cancer cell lines. HL-60/TX1000 was isolated in vitro by subculturing HL-60 in progressively higher concentration of Taxol. HL-60/TX1000 cells over-express mdr-1 mRNA and p-glycoprotein, as determined by western blot and immunofluorescence labeling with antiPGP antibodies. The cell is cross-resistant to Taxol, Vincristine, Adriamycin, Etoposide and Doxorubicin. MES-SA/Dx5 was established in the presence of increasing concentrations of Doxorubicin. […] MES-SA/Dx5 was purchased from ATCC.
(§6) The procedure for culturing the cells and assaying cancer cell growth inhibition were as described in Example 3.
The protocol described in Examples 9-10 was used to assay inhibition by Compounds (2)-(8) on the growth of the multidrug resistant cancer cell line MES-SA/DX5, which is a MDR uterine sarcoma cell line.

[4] = tested on: MDR cell lines (MES-SA/DX5, HL-60/TX1000); experiment: in vitro activity over the two MDR cell lines; assay type: cell-based, human; settings: Homo sapiens; range over MES-SA/DX5 and HL-60/TX1000; read-out: IC50 against the MDR cell lines
Procedure: as §2, §3, §5, §6

[5] = tested on: HL-60/TX1000 (multi-drug resistant human myeloid leukemia cell line); experiment: In vitro activity against multi-drug resistant cell line HL-60/TX1000; assay type: cell-based; settings: HL60/TX1000, HL-60/TX1000 MDR cells (Table 2)
Procedure: as §2, §3, §5, §6

[6] = tested on: HL-60 (human myeloid leukemia); experiment: In vitro anti-cancer activity, MTS growth inhibition assay, HL-60; assay type: cell-based; settings: HL-60 cells, 72 hours
Procedure: as §1, §2, §3

U937 (human leukemia) = experiment: In vitro anti-cancer activity, MTS growth inhibition assay, U-937; assay type: cell-based; settings: U-937 cells, 72 hours
Procedure: as §1, §2, §3

[7] = tested on: MDA435 (human breast cancer); experiment: In vitro anti-cancer activity, MTS growth inhibition assay, MDA-435; assay type: cell-based; settings: MDA-435 cells, 72 hours
Procedure: as §1, §2, §3

[8] = tested on: MIP101 (human colon cancer); experiment: In vitro anti-cancer activity, MTS growth inhibition assay, MIP-101; assay type: cell-based; settings: MIP-101 cells, 72 hours
Procedure: as §1, §2, §3

p388 (murine leukemia) = experiment: In vitro anti-cancer activity, MTS growth inhibition assay, p388; assay type: cell-based; settings: Mus musculus, p388 cells, 72 hours
Procedure: as §1, §2, §3

[9] = DU-145 cells (Table 4, Example 13), read-out: IC50 DU-145
[10] = MES-SA cells (Table 4, Example 13), read-out: IC50 MES-SA
[11] = MES-SA/DX5 MDR cells (Table 3, Example 12)

Structure (SMILES) | IC50 [1, 9] | IC50 (MES-SA and DU-145) | IC50 [2, 10] | IC50 [3, 11] | other results
Cc1cc(NC(=O)C(=O)c2cc(Oc3ccc(C#N)cc3)n3ccccc23)sn1 [Compound (20), 2-[3-(4-Cyano-phenoxy)-indolizin-1-yl]-N-(3-methyl-isothiazol-5-yl)-2-oxo-acetamide] | 50 nM | 50 to 100 nM | 50 nM |  | 
Cc1cc(NC(=O)C(=O)c2cc(Cc3ccc(F)cc3)n3ccccc23)sn1 [Compound (7)] |  |  |  | 50 nM | 
Cc1cc(NC(=O)C(=O)c2cc(Cc3ccc(C#N)cc3)n3cc(F)ccc23)sn1 [Compound (4)] |  |  |  | 50 nM | 
CC[C@]1(O)C[C@H]2CN(CCc3c([nH]c4ccccc34)[C@@](C(=O)OC)(c3cc4c(cc3OC)N(C=O)[C@H]3[C@@](O)(C(=O)OC)[C@H](OC(C)=O)[C@]5(CC)C=CCN6CC[C@]43[C@@H]65)C2)C1 [Vincristine] |  |  |  |  | IC50 [4]: 1000 to 5000 nM; IC50 ([3]; MES-SA/Dx5, MES-SA/DX-5 MDR cells (Table 2)): 1000 nM; IC50 [5]: 5000 nM
COc1ccc(Cc2cc(C(=O)C(=O)Nc3cc(C)ns3)c3ccccn23)cc1 [Compound (8)] |  |  |  | 100 nM | 
Cc1ccc2c(C(=O)C(=O)Nc3cc(C)ns3)cc(Cc3ccc(C#N)cc3)n2c1 [Compound (24), 2-[3-(4-Cyano-benzyl)-6-methyl-indolizin-1-yl]-N-(3-methyl-isothiazol-5-yl)-2-oxo-acetamide] | 50 nM | 50 to 100 nM | 50 nM |  | 
Cc1cc(NC(=O)C(=O)c2cc(Cc3ccc(C#N)s3)n3ccccc23)sn1 [Compound (28), 2-[3-(5-cyano-thiophen-2-ylmethyl)-indolizin-1-yl]-N-(3-methyl-isothiazol-5-yl)-2-oxo-acetamide] | 100 nM | 50 to 100 nM | 100 nM |  | 
Cc1cc(NC(=O)C(=O)c2cc(N(C)c3ccc(C#N)cc3)n3ccccc23)sn1 [Compound (21), 2-{3-[(4-Cyano-phenyl)-methyl-amino]-indolizin-1-yl}-N-(3-methyl-isothiazol-5-yl)-2-oxo-acetamide] | 50 nM | 50 to 100 nM | 50 nM |  | 
Cc1cc(NC(=O)C(=O)c2cc(Cc3ccccc3)n3ccccc23)sn1 [Compound (6)] |  |  |  | 50 nM | 
N#Cc1ccc(Cc2cc(C(=O)C(=O)Nc3ccc4ncccc4c3)c3ccccn23)cc1 [Compound (5)] |  |  |  | 100 nM | 
CC(=O)O[C@H]1C(=O)[C@@]2(C)[C@H]([C@H](OC(=O)c3ccccc3)[C@]3(O)C[C@H](OC(=O)[C@H](O)[C@@H](NC(=O)c4ccccc4)c4ccccc4)C(C)=C1C3(C)C)[C@]1(OC(C)=O)CO[C@@H]1C[C@@H]2O [Taxol, reference compound] |  |  |  | 5000 nM | IC50 [4]: 1000 to 5000 nM; IC50 [6]: 5 nM; IC50 (U937 (human leukemia)): 5 nM; IC50 [7]: 5 nM; IC50 ([1]; DU-145 cells, 72 hours, MTS assay (Table 1), read-out: IC50): 5 nM; IC50 [8]: 500 nM; IC50 (p388 (murine leukemia)): 10 nM; IC50 [5]: 5000 nM; IC50 ([2]; MES-SA cells, 72 hours, MTS assay (Table 1), read-out: IC50): 5 nM
O=C(Nc1ccc2ncccc2c1)C(=O)c1cc(Cc2ccc(Cl)cc2)n2ccccc12 [Compound (3)] |  |  |  | 100 nM | 
Cc1cc(NC(=O)C(=O)c2cc(Cc3ccc(Cl)cc3)n3ccccc23)sn1 [Compound (2)] |  |  |  | 60 nM | 
